What was measured:
[1] = target: T1, NK2 receptor (Oryctolagus cuniculus, UniProt P79218); test: NK2 receptor antagonist activity in vitro: antagonism of contractile effects of [βAla8]NKA(4-10) in rabbit pulmonary artery (Patacchini and Maggi); type: biochemical; conditions: agonist [βAla8]NKA(4-10), read-out: pA2, NK2 receptor antagonist activity (converted)
T1 construct: in the rabbit pulmonary artery; from tissue; host or cells: rabbit pulmonary artery
T1 sequence (P79218 1-384): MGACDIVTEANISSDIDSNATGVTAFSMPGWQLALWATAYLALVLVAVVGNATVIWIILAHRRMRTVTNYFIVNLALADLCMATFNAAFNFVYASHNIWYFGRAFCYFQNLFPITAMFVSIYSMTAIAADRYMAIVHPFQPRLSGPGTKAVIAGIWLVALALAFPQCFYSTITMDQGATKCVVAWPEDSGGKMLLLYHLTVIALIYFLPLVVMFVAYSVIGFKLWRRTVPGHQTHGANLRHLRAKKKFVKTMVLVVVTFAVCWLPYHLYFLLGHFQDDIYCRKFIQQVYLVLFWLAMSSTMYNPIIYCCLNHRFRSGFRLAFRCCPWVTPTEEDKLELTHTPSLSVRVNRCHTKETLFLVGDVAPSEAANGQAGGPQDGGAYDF
From the text: The NK2 receptor antagonist activity of the compounds of the formula (I) can be tested, in vitro, by testing their ability to antagonise the contractile effects of the selective NK2 receptor agonist [βAla^8 ]NKA(4-10) in the rabbit pulmonary artery, using the method of Patacchini and Maggi, Eur. J. Pharmacol., 236, 31-37 (1993).

[2] = target: T2, human NK2 receptor (Homo sapiens, UniProt P21452); test: NK2 receptor binding: competition with [3H] or [125I]NKA for binding to CHO cell membranes expressing cloned human NK2 receptor; conditions: membranes of Chinese hamster ovary cells expressing cloned human NK2 receptor, 90 min, 25° C., read-out: plC50, NK2 receptor binding activity (converted)
T2 construct: expressed in transfected cells; host or cells: Chinese hamster ovary (CHO) cells, membranes
T2 sequence (P21452 1-398): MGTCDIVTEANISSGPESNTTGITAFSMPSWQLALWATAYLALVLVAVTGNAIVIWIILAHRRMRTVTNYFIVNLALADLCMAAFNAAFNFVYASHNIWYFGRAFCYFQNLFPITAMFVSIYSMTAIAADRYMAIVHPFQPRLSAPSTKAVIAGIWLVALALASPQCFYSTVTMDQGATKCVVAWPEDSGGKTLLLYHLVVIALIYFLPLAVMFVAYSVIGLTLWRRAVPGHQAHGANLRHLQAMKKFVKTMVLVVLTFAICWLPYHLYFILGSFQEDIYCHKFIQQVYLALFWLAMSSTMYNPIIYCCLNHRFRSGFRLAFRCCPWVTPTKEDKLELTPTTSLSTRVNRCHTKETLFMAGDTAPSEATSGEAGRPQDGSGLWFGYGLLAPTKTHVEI
Experimental: The affinity of the compounds of formula (I) and their salts for the human NK2 receptor can be tested in vitro by testing their ability to compete with [^3 H] or […] (neurokinin A) for binding to membranes prepared from Chinese hamster ovary cells expressing the cloned human NK2 receptor. In this method, washed Chinese hamster ovary cell membranes are prepared as described for the previous method where IM9 cells are used instead. The membranes are incubated (90 min, 25° C.) with [^3 H] or [^125 I] NKA and with a range of concentrations of the test compound. Non-specific binding was determined in the presence of 10μM NKA.

NS(=O)(=O)N1CCN(C2CN(CC[C@]3(c4ccc(Cl)c(Cl)c4)CCC(=O)N(CC4CCCCC4)C3=O)C2)CC1 [Example 3, 3(S)-3-(2-(3-(4-Aminosulphonylpiperazin-1-yl)azetidin-1-yl)ethyl)-1-cyclohexylmethyl-3-(3,4-dichlorophenyl)glutarimide]
Kb [1]: 7.94 nM | IC50 [2]: 0.501 nM

From patent publication US5741790A, “Azetidines” (Pfizer Inc., priority 1996, dated 1998)
